Columns and labels:
[1] = test system: human breast cancer cell line (MCF-7); test: MTT assay, cytotoxicity; format: cell-based; settings: for survival percentage (mean ± SEM): MCF-7, 24 hours
Description: (§1) Cancer cell lines were manipulated according to the method described by Sigounas et al.. In this method, the cell lines were grown as adherent monolayers in T75 flasks with Dulbecco's modified Eagle's medium (DMEM) supplemented with 10% Fetal Bovine Serum (FBS), 2 mM L-glutamine, and 1% streptomycin/penicillin. The cells were left to grow in a CO2 incubator at 37°C, 5% CO2, and 95% humidity until their confluence.
(§2) The 3-[4,5-dimethylthiazol-2-yl]-2,5-diphenyltetrazolium bromide (MTT) colorimetric assay was used to examine the sensitivity of cells to tested compounds (as anticancer drugs), as previously described. This assay depends on the production of a purple formazan derivative from the yellow tetrazolium bromide (MTT) by mitochondrial succinate dehydrogenase in viable cells. The percentage of cell survival was calculated as follows: (1) Percentage of survival=O.D.treated cells/O.D.control cells×100.
(§3) For preliminary screening of the cytotoxicity of synthesized compounds 3a-g, cells exposed to DMSO were used as a control. Plotting the relationship between the survival score and the compound concentration and calculating the IC50 (the concentration required to inhibit cell viability by 50%) were performed for each test compound according to Li et al. in comparison with the reference standard anticancer agent, 5-FU.
(§4) The 3-[4,5-dimethylthiazol-2-yl]-2,5-diphenyltetrazolium bromide (MTT) colorimetric assay was used to examine the sensitivity of cells to tested compounds (as anticancer drugs), as previously described by Hussein et al. (2017). This assay depend on the production of a purple formazan derivative from the yellow tetrazolium bromide (MTT) by mitochondrial succinate dehydrogenase in viable cells. Briefly, after harvesting the cells with 0.25% trypsin, the cell lines were suspended in DMEM. Cells were seeded in 96-well microtiter plates at a concentration of 5×10^4 cell/well in a fresh medium and left to attach to the plates for 24 h before treatment with the tested compounds 3a-g. Test compounds were dissolved in dimethyl sulfoxide (DMSO). After 24 hours, cells were incubated with the appropriate concentration ranges of compounds, the wells were diluted to […] with fresh medium and incubation was continued for 24 hours. Three wells were used for each concentration. After 24 hours of treatment, 20 μl of MTT solution (5mg/ml) was added and subsequently the plates were further incubated for 4 hours to allow the viable cells to biotransform the yellow-colored MTT into purple formazan crystals. The optical density (O.D.) of each well was measured spectrophotometrically at […] with an enzyme-linked immunosorbent assay (ELISA) microplate reader (BioTek, EL-800, USA). The percentage of cell survival was calculated as follows: […]

[2] = test system: human liver cancer cell line (HepG2); test: MTT assay, cytotoxicity; format: cell-based; settings: for survival percentage (mean ± SEM): HepG2, 24 hours
Description: as §1, §2, §3, §4

HepG2 cell line = test: Cell cycle analysis (PI, flow cytometry); format: cell-based, human
Description: (§5) Cell cycle analysis was performed to decide if the newly synthesized thienopyrimidine derivatives arrested the cell cycle and at what phase of the cell cycle, the HepG2 and MCF-7 cell lines were arrested. The experiments were performed as previously described by Tolba et al.. HepG2 and MCF-7 cell lines were seeded and incubated with the tested compounds in 6-well plates. After incubation overnight, the cells were washed twice with ice-cold phosphate-buffered saline (PBS), detached by EDTA-trypsinization from the plates, harvested by centrifugation, fixed in ice-cold 70% (v/v) ethanol, and washed with phosphate-buffered saline (PBS, pH 7.2 ± 0.2). The cells were resuspended with 0.1 mg/ml RNase, stained with […] propidium iodide (PI), and analyzed by flow cytometry using a FACSCalibur flow cytometer (BD Biosciences, San Jose, CA). CellQuest software (Becton Dickinson) was used to determine the cell cycle distributions after incubation with 5-FU or tested compounds. Exposure of HepG2 and MCF-7 cell lines to these compounds could interfere with the normal cell cycle distribution.

MCF-7 cell line = test: Cell cycle analysis (PI, flow cytometry); format: cell-based, human; settings: compared with control cells
Description: as §5

[3] = test system: Bax, Bcl-2, caspase-3, and caspase-9 in MCF-7; test: RT-PCR relative expression of apoptosis markers; format: cell-based, human; settings: IC50, 8-hour incubation; for expression levels of Bax / expression levels of Bcl-2 / expression levels of caspase-3 / expression levels of caspase-9: vs control
Source text: We determined the effect of IC50 concentration of newly synthesized thienopyrimidine derivatives (3a-e and 3g and 3b and 3g) on the relative expression levels of some markers of apoptosis in HepG2 and MCF-7 cell lines, respectively. These included the antiapoptotic marker Bcl-2 as well as the apoptotic markers Bax, caspase-3, and caspase-9 [33]. BIORAD iScript™ One-Step RT-PCR kit with SYBR® Green was used to assess the relative levels of expression of apoptosis markers. The measurement was carried out according to the technique of reverse transcription polymerase chain reaction (RT-PCR) using the Rotor-Gene RT-PCR system, and the method of the used kit was done based on the manufacturer's instructions. The procedure of this assay included the following:
Based on the manufacturer's instructions, the Qiagen RNeasy Extraction Kit (Qiagen Ltd., UK) was used to isolate mRNA from approximately 1 × 10^7 cells according to the cell line.
Mix all the following reagents to get the total volume (50 μl): 2X SYBR® Green RTPCR reaction mixture (25 μl), forward primer […] (1.5 μl), reverse primer […] (1.5 μl), nuclease-free water (11 μl), RNA template (1 pg-100 ng total RNA) (10 μl), and iScript reverse transcriptase (1 μl) for One-Step RT-PCR.
The thermal cycler (Rotor-Gene) program used was as follows: one cycle for reverse transcription at 50°C for 10 minutes and one cycle for RT inactivation/Hot-start activation at 95°C for 5 minutes and then 45 cycles for qPCR (10 s at 95°C, 30 seconds for annealing at 55°C, and 30 seconds for extension at 72°C), and this is followed by the final extension (one cycle) at 72°C for 10 minutes.

Row | Structure (SMILES) | survival percentage (mean ± SEM) ([1]; 4.8828125 μg/ml) | survival percentage (mean ± SEM) ([1]; 9.765625 μg/ml) | survival percentage (mean ± SEM) ([1]; 19.53125 μg/ml) | survival percentage (mean ± SEM) ([1]; 39.0625 μg/ml) | survival percentage (mean ± SEM) ([1]; 78.125 μg/ml) | survival percentage (mean ± SEM) ([1]; 156.25 μg/ml) | survival percentage (mean ± SEM) ([1]; 312.5 μg/ml) | survival percentage (mean ± SEM) ([1]; 625 μg/ml) | survival percentage (mean ± SEM) ([1]; 1250 μg/ml) | survival percentage (mean ± SEM) ([1]; 2500 μg/ml) | survival percentage (mean ± SEM) ([1]; 5000 μg/ml) | survival percentage (mean ± SEM) ([1]; 10000 μg/ml) | fold more effective anticancer activity than 5-FU ([1]; MCF-7 cell line) | survival percentage (mean ± SEM) ([2]; 4.8828125 μg/ml) | survival percentage (mean ± SEM) ([2]; 9.765625 μg/ml) | survival percentage (mean ± SEM) ([2]; 19.53125 μg/ml) | survival percentage (mean ± SEM) ([2]; 39.0625 μg/ml) | survival percentage (mean ± SEM) ([2]; 78.125 μg/ml) | survival percentage (mean ± SEM) ([2]; 156.25 μg/ml) | survival percentage (mean ± SEM) ([2]; 312.5 μg/ml) | also measured
1 | CCOC(=O)Cn1c(SCC(=O)Nc2ccc(C(=O)/C=C\c3cc(OC)c(OC)c(OC)c3)cc2)nc2sc3c(c2c1=O)CCN(C(=O)OCC)C3 [Compound 3b, Ethyl (Z)-3-(2-Ethoxy-2-oxoethyl)-4-oxo-2-((2-oxo-2-((4-(3-(3,4,5 trimethoxyphenyl)acryloyl)phenyl)amino)ethyl)thio)-3,5,6,8 tetra-hydropyrido[4′,3′:4,5]thieno[2,3-d]pyrimidine-7(4H)-carboxylate] | 104.9 ± 0.016% | 102.6 ± 0.015% | 83.2 ± 0.022% | 31.8 ± 0.009% | 27.7 ± 0.026% | 21.3 ± 0.013% | 21.0 ± 0.001% | 20.3 ± 0.002% | 20.3 ± 0.001% | 20.1 ± 0.001% | 19.7 ± 0.002% | 17.3 ± 0.001% | 846.5 fold | 110.1 ± 0.046% | 67.9 ± 0.048% | 23.2 ± 0.012% | 18.4 ± 0.006% | 17.3 ± 0.007% | 16.2 ± 0.004% | 13.3 ± 0.004% | times more activity compared to compound 3g ([1]; MCF-7 cell line): ~ 2.5 times; survival percentage (mean ± SEM) ([2]; 625 μg/ml): 12.9 ± 0.006%; survival percentage (mean ± SEM) ([2]; 1250 μg/ml): 12.7 ± 0.002%; survival percentage (mean ± SEM) ([2]; 2500 μg/ml): 12.2 ± 0.001%; survival percentage (mean ± SEM) ([2]; 5000 μg/ml): 12.1 ± 0.001%; survival percentage (mean ± SEM) ([2]; 10000 μg/ml): 12.1 ± 0.002%; times more activity compared to compounds 3a and 3c ([2]; HepG2 cell line): ~ 18 times; cell population in pre-G1 phases compared with control cells (HepG2 cell line): significant increase; G1 and pre-G1 arrest (MCF-7 cell line): significantly (P < 0.05) induced G1 and pre-G1 arrest; Bax/Bcl-2 ratios [3]: strikingly elevated; expression levels of Bax [3]: significant elevation; expression levels of Bcl-2 [3]: remarkable decrease; expression levels of caspase-3 [3]: significant elevation; expression levels of caspase-9 [3]: significant elevation
2 | CCOC(=O)Cn1c(SCC(=O)Nc2ccc(C(=O)/C=C\c3cccc([N+](=O)[O-])c3)cc2)nc2sc3c(c2c1=O)CC(C)(C)NC3(C)C [Compound 3g, Ethyl (Z)-2-(6,6,8,8-Tetramethyl-2-((2-((4-(3-(3-nitrophenyl)acryloyl)-phenyl)amino)-2-oxoethyl)thio)-4-oxo-5,6,7,8-tetrahydropyrido[4′,3′:4,5]thieno[2,3-d]pyrimidin-3(4H)-yl)acetate] | 105.3 ± 0.032% | 98.2 ± 0.023% | 96.4 ± 0.003% | 81.0 ± 0.009% | 28.0 ± 0.015% | 20.1 ± 0.003% | 19.4 ± 0.004% | 19.9 ± 0.001% | 19.9 ± 0.002% | 19.0 ± 0.001% | 18.9 ± 0.001% | 15.3 ± 0.000% | 350.4 fold | 131.3 ± 0.033% | 115.9 ± 0.098% | 97.8 ± 0.053% | 64.1 ± 0.038% | 17.5 ± 0.002% | 14.5 ± 0.003% | 14.1 ± 0.002% | survival percentage (mean ± SEM) ([2]; 625 μg/ml): 13.0 ± 0.003%; survival percentage (mean ± SEM) ([2]; 1250 μg/ml): 12.5 ± 0.001%; survival percentage (mean ± SEM) ([2]; 2500 μg/ml): 12.7 ± 0.002%; survival percentage (mean ± SEM) ([2]; 5000 μg/ml): 12.5 ± 0.001%; survival percentage (mean ± SEM) ([2]; 10000 μg/ml): 12.3 ± 0.002%; fold more potent activity than 5-FU ([2]; HepG2 cell line): 420.94 fold; cell population in G2/M compared with control cells (HepG2 cell line): substantial increase; cell population in pre-G1 phases compared with control cells (HepG2 cell line): significant increase; G1 and pre-G1 arrest (MCF-7 cell line): significantly (P < 0.05) induced G1 and pre-G1 arrest; Bax/Bcl-2 ratios [3]: strikingly elevated; expression levels of Bax [3]: significant elevation; expression levels of Bcl-2 [3]: remarkable decrease; expression levels of caspase-3 [3]: significant elevation; expression levels of caspase-9 [3]: significant elevation

— article PMC8728392, “Synthesis, Anticancer Assessment, and Molecular Docking of Novel Chalcone-Thienopyrimidine Derivatives in HepG2 and MCF-7 Cell Lines” (Oxidative Medicine and Cellular Longevity, 2021)
